These results are taken from US8513274B2, “Ellipticine compounds for treating obesity” (Etzem, Inc., priority 2009, dated 2013).

Where a name gives a salt, the structure may show the parent alone.

The assay can be described thus: Reduction of body weight with ellipticine hydrochloride in mice. Format: in vivo. The settings on record: initial body weight 30 g, every weekday. Here is the method: In order to determine the effect of ellipticine and ellipticine derivatives in reducing body weight, ellipticine hydrochloride was administered to mice every weekday for 4 weeks (30 days) and their body weights tracked. Ellipticine hydrochloride was solubilized in saline and administered via intraperitoneal injection. Animals were weighed weekly.
Mice (6 per group) were divided into seven groups and given one of the following treatments: • 1. 10 mg ellipticine hydrochloride/kg body weight (Low) • 2. 20 mg ellipticine hydrochloride/kg body weight (Mid) • 3. 30 mg ellipticine hydrochloride/kg body weight (High) • 4. Saline • 5. 3 mg/kg body weight (Positive control 2) • 6. 5 mg/kg body weight (Positive control low) • 7. 10 mg/kg body weight (Positive control high)

Turning to `Cc1c2ccncc2c(C)c2c1[nH]c1ccccc12` [ellipticine hydrochloride], the “body weight loss (decrease of body weight)” value (10 mg/kg (Low) intraperitoneal in saline, end of 4 weeks) is recorded as “more than 18%”. Moreover, the body weight loss result (20 mg/kg (Mid) intraperitoneal in saline, end of week 3, animals then sacrificed) is listed as “more than 33%”. Under “30 mg/kg (High) intraperitoneal in saline, end of week 2, animals then sacrificed”, the “reduction in body weight” value stood at 28%.
